Laboratory results reported in patent US6403619B1, “Method for controlling cell necrosis or apoptosis” (University of Kentucky Research Foundation, priority 1998, dated 2002).

How the values were obtained:
[1] = Local vasodilation following topical application of cream (assesses rate of hydrolysis to nicotinate); type: in vivo; settings: for duration of vasodilation / onset of vasodilation: topical application of a cream containing 0.05%
Description: The next issue considered was the rate of hydrolysis of topically applied pro-NAD agents to nicotinic acid such that conversion to NAD can be completed by the pathway shown in FIG. 11. The rates of hydrolysis of a pro-NAD agent following topical application can be assessed by evaluation of local vasodilation following topical application of a pro-NAD agent. […] Experiments have compared the absence or presence of vasodilation (and the time course of vasodilation when present) for a number of the pro-NAD agents shown in FIG. 13. For example, application of a cream containing 0.05% hexylnicotinate results in vasodilation with onset at approximately 10 minutes and duration of approximately 90 minutes. A similar application of octylnicotinate results in an onset of vasodilation at approximately 15 minutes with duration of 360 minutes. […] These experiments indicate that tetradecylnicotinate is released very slowly following application. Two factors are likely involved in the rate of hydrolysis of topically applied pro-NAD agents, the rate of departure from the stratum corneum and the rate of hydrolysis by esterases present in the epidermal and dermal layers of the skin.

human skin fibroblasts = experiment: Bioconversion of pro-NAD agents to NAD by skin fibroblasts in culture; type: cell-based; settings: FIG. 11
Procedure: A series of experiments were performed to determine the possible classes of pro-NAD agents that may be used for the elevation of skin cell NAD content by topical application. Any compound that can be converted to NAD is referred to here as a “pro-NAD” agent.

cells [2] = experiment: DNA integrity following genotoxic stress induced by MNNG; type: cell-based; settings: high levels (500 micromolar) compared with normal levels (50 micromolar), FIG. 12A
Procedure: The DNA repair proficiency as a function of NAD content has been assessed also by a technique called a “comet assay.” In a comet assay (O. Ostling and K. J. Johanson, Biochem. Biophys. Res. Commun. 123: 291 (1984); P. L. Olive and J. P. Banath, Exp. Cell Res. 221: 19 (1995)), cells are plated out after embedding into liquid agarose on a carrier and lysed in situ after formation of an agarose gel. The DNA of the individual cells is then separated in situ in an electric field. Damaged DNA containing strand breaks migrates away from the cell nucleus due to its smaller size and this migration results in an image where the nucleus appears as the head of the comet and the broken DNA appears as tail of the comet. The more degraded the genomic DNA is, the greater the amount of migration-capable DNA and the longer the “comet tail.”

cells [3] = experiment: Survival under oxidative genotoxic stress caused by staurosporin; type: cell-based; settings: 50 μM in medium compared with none; different concentrations of staurosporin; FIG. 19
Procedure: These experiments describe studies on oxidative genotoxic stress, caused by staurosporin. Cells were contacted with different concentrations of staurosporin, and were cultured in medium that either contained no nicotinamide or 50 μM nicotinamide.

p53 = settings: high levels of the agent; in the absence of and following genotoxic stress; FIG. 12B
Procedure: Briefly, cells were grown in control or suboptimal niacin media as described in Example 1 above, resulting in cells with normal or low NAD content. The protein of the cells was then extracted and portions of the extract were separated by SDS-polyacrylamide gel electrophoresis (SDS-PAGE) and p53 protein content was determined by immunoblotting (western blotting). […] FIG. 9B compares the relative content of p53 following genotoxic stress caused by the alkylating agent MNNG in cells with a low or normal NAD content.

Epithelial cells = experiment: Necrosis and apoptosis of epithelial cells under MNNG genotoxic stress; type: cell-based
Procedure: Epithelial cells were subjected to genotoxic stress with the alkylating agent N-methyl-N^1-nitro-N-nitrosoguanidine, or “MNNG” as referred to supra and hereafter. Epithelial cells were cultured in the presence of either no MNNG, 10 μg/mL MNNG, or 20 μg/mL of MNNG, in medium containing either 0, 50 μM or 500 μM nicotinamide. Percent necrosis and apoptosis was studied over time, i.e., for 48 hours. […] Nicotinamide is converted to NAD, but as indicated, none was added in the experiments depicted in 17A and 17D.

[4] = Octanol/water partition coefficient; type: physicochemical; settings: extrapolated from Po/w values of the shorter esters; FIG. 14
Description: The first issue considered was the physical-chemical properties of the pro-NAD agents most desirable for topical application. The nicotinic acid molecule may not be optimal because it may be too polar to be effectively delivered to skin cells topically. Molecules that are too polar may not effectively partition into the apolar stratum corneum layer of skin and following passage across the stratum corneum, it would be expected to rapidly enter the systemic circulation. To evaluate the potential of these pro-NAD agents to partition into the stratum corneum, the octanol/water partition coefficients for the methyl, eythl-, butyl-, hexyl-, and octyl-esters of nicotinate were experimentally determined.
The octanol/water partition coefficient was determined by dissolving a known amount of pro-NAD agent in water and then mixing the aqueous compound with a known volume of octanol. After mixing for a period of 1 to 18 hours, aliquots of the water phase were analyzed by HPLC for the amount of remaining pro-NAD agent. The partition coefficient (P) was calculated from the following equation:
log Po/w=log10((Co−C)CVo))
where Co is the initial concentration in water and C is the concentration after partitioning. Vw and Vo represent the volume of water and octanol phases respectively.

[5] = Signs of toxicity after topical application, hairless mouse model; type: in vivo; settings: topical 1% cream, experiments of FIGS. 15 and 16
Procedure: (§1) Based on evaluation of pro-NAD agents, proof of principle experiments for elevation of skin cell NAD content by topical delivery were performed using a hairless mouse model. In brief, tetradecylnicotinate was used for the initial studies. In the study three daily topical applications of 1% tetradecylnicotinate cream to the back of the animals and no cream were applied to the abdomen. Immediately following the third application, the skin from the back and abdomen were analyzed for NAD content. Test samples of skin were frozen in liquid nitrogen and powdered by mechanical means. NAD content was assessed as described previously (Jacobson, E L, and Jacobson, M K Meth Enzymol 280, 221-230, 1997; Jacobson, E L et al., J Cell Physiol 99, 417-426, 1979). The NAD assay is based on the principle of enzymic cycling between oxidized and reduced states, in which NAD is rate-limiting for a series of amplification reactions. Total protein was assayed by the Bradford assay.
(§2) In another experiment, the effect of the number of daily application of 1% tetradecylnicotinate cream was examined. Again, application was made to the back of the animal and the abdomen of each animal served as control.

NAD content of skin = experiment: Skin NAD content after topical application, hairless mouse model; type: in vivo
Procedure: as §1, §2

[6] = system: Malignant epithelial cells; experiment: Doubling of malignant epithelial cell populations under PARP (tankyrase) inhibition; type: cell-based; settings: 0.1 M; after 10 weeks; compared with control grown without it; FIG. 20
Procedure: Malignant epithelial cells were grown in the presence of 0.1 M benzamide, which is known to inhibit all PARPs. The doubling of the cell populations was observed over a period of time, and compared to a control, which was grown in the absence of benzamide.

[7] = varying number of daily applications of 1% cream to the back, FIG. 16

Structure (SMILES): CCCCCCCCOC(=O)c1cccnc1 [octylnicotinate]
- duration of vasodilation [1]: 360 min
- onset of vasodilation [1]: approximately 15 minutes

Structure (SMILES): O=C(O)c1cccnc1 [nicotinic acid]
- bioconversion to NAD (human skin fibroblasts): can be bioconverted to NAD

Structure (SMILES): NC(=O)c1cccnc1 [nicotinamide]
- DNA integrity (cells [2]): decreased DNA integrity
- rate of cell death (percentage survival) (cells [3]): rate of cell death is decreased significantly
- p53 levels / p53-signaling response (p53): abnormally high levels of p53
- bioconversion to NAD (human skin fibroblasts): can be bioconverted to NAD
- response (necrosis, apoptosis) to MNNG induced genotoxic shock (Epithelial cells; 500 μM in medium, MNNG 10 or 20 μg/mL, 48 hours, FIGS. 17C and 17F): Normal responses were not established
- involvement in cell death pathways (cellular morphology over time) (Epithelial cells; none, 50 μM or 500 μM in medium, FIGS. 18A-18D): involved in cellular necrosis pathways much more than in apoptosis pathways

Structure (SMILES): CCCCCCCCCCCCCCCCCCOC(=O)c1cccnc1 [octadecylnicotinate]
- properties for partitioning into the stratum corneum (Po/w predicted by extrapolation) [4]: favorable properties for partitioning into the stratum corneum

Structure (SMILES): CCCCCCOC(=O)c1cccnc1 [hexylnicotinate]
- duration of vasodilation [1]: approximately 90 minutes
- onset of vasodilation [1]: approximately 10 minutes

Structure (SMILES): CCCCCCCCCCCCCCOC(=O)c1cccnc1 [tetradecylnicotinate]
- signs of toxicity [5]: in no case were any signs of toxicity observed
- vasodilation ([1]; similar topical application of cream (0.05%)): does not result in vasodilation
- properties for partitioning into the stratum corneum (Po/w predicted by extrapolation) [4]: favorable properties for partitioning into the stratum corneum
- NAD content of skin removed from the abdomen (no cream applied) (NAD content of skin; three daily applications of 1% cream to the back, FIG. 15): not increased
- skin NAD content relative to control animal treated with base cream only (NAD content of skin; three daily topical applications of 1% cream to the back, back skin, FIG. 15): 143%
- NAD content of skin removed from the back (NAD content of skin; [7]): increased as a function of the number of daily applications
- NAD content of the abdomen (control site) (NAD content of skin; [7]): did not increase

Structure (SMILES): NC(=O)c1ccccc1 [benzamide]
- doubling of the cell populations [6]: stopped doubling
